The text below walks through data of ChEMBL document CHEMBL1201862, “PubChem BioAssay data set” (2004).

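All cell lines were grown in 96-well plates and treated with compound for 48 hours. GI50: concentration for 50% inhibition of growth.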 Active and inactive are the calls of the source. Cut-off read from the data, not from the text of the source: active = GI50 up to about 1.1 µM and inactive = higher.

Among the test systems are CAKI-1; SR; IGROV-1; TK-10; 786-0; LOX IMVI; A498; COLO 205; HT-29; HCT-116; HCC 2998; BT-549; CCRF-CEM; EKVX; MDA-N; U-251; SK-MEL-5; MDA-MB-231; OVCAR-4; NCI/ADR-RES.
Holding throughout (experiment): NCI-60 cell line screen, 48 h

On to `Oc1ccccc1C(c1cc2c(cc1O)OCO2)N1CCOCC1` (stereo not given), for which the GI50 with CAKI-1 was 19.7 µM (inactive); with SR, 8.07 µM (inactive); in the experiment on IGROV-1, 19.4 µM (inactive); in the experiment with TK-10 it was > 10 µM (inactive); in the experiment with 786-0, 4.89 µM (inactive); in the experiment with LOX IMVI, 17.1 µM (inactive). Also, the GI50 was 22.9 µM (inactive) with A498; 18.7 µM (inactive) with COLO 205; 18.5 µM (inactive) in the experiment with HT-29; 17.7 µM (inactive) in the experiment on HCT-116; 18.7 µM (inactive) in the experiment on HCC 2998; 16.6 µM (inactive) in the experiment with BT-549. For the same compound, the GI50 in the experiment on CCRF-CEM is 2.14 µM (inactive); in the experiment with EKVX it was 50.9 µM (inactive); in the experiment with MDA-N, 18.7 µM (inactive); in the experiment on U-251 it was 16.6 µM (inactive); in the experiment on SK-MEL-5, 17.3 µM (inactive); in the experiment on MDA-MB-231, 21 µM (inactive).

Regarding `CCOC(=O)Nc1sc2c(c1C#N)CCCC2`, the GI50 with CAKI-1 was > 100 µM (inactive); with SR, 75 µM (inactive); in the experiment with IGROV-1, > 100 µM (inactive); in the experiment on TK-10, > 100 µM (inactive); in the experiment on OVCAR-4, > 100 µM (inactive); in the experiment on 786-0, > 100 µM (inactive). Besides, the GI50 is 63.8 µM (inactive) in the experiment on LOX IMVI; 85.3 µM (inactive) in the experiment on A498; > 100 µM (inactive) with COLO 205; > 100 µM (inactive) in the experiment on HT-29; 74.1 µM (inactive) in the experiment with HCT-116; > 100 µM (inactive) with HCC 2998. Moreover, the GI50 was 49 µM (inactive) in the experiment on BT-549; 64.9 µM (inactive) in the experiment on CCRF-CEM; 25.9 µM (inactive) in the experiment on EKVX; 50.4 µM (inactive) in the experiment on MDA-N; > 100 µM (inactive) in the experiment with U-251; 71.6 µM (inactive) with SK-MEL-5. Further, the GI50 in the experiment with MDA-MB-231 is 71.3 µM (inactive).

On to `Clc1cccc(N2CCN(CCN3CCc4c([nH]c5ccccc45)C3c3cccnc3)CC2)c1` (stereo not given), for which the GI50 in the experiment with CAKI-1 is > 100 µM (inactive); in the experiment on NCI/ADR-RES it was > 100 µM (inactive); with SR, 25.7 µM (inactive); in the experiment on IGROV-1, 9.59 µM (inactive); with TK-10, > 100 µM (inactive); in the experiment on OVCAR-4, 31.4 µM (inactive). Besides, the GI50 in the experiment on 786-0 is 29.8 µM (inactive); in the experiment with LOX IMVI, > 50.2 µM (inactive); with A498, > 100 µM (inactive); with COLO 205, > 33.7 µM (inactive); in the experiment with HT-29, 37 µM (inactive); in the experiment on HCT-116, 31.8 µM (inactive). Also, the GI50 in the experiment with HCC 2998 was 22.5 µM (inactive); in the experiment with BT-549 it was > 100 µM (inactive); with CCRF-CEM it was > 40.4 µM (inactive); in the experiment on EKVX it was 14.5 µM (inactive); in the experiment on MDA-N it was > 100 µM (inactive); in the experiment on U-251 it was 64.4 µM (inactive). Also, in the experiment on SK-MEL-5, the GI50 is 97.7 µM (inactive).

As for `O=C1C=CC(=O)c2ccc(=O)ccc21`, the GI50 with CAKI-1 is 9.25 µM (inactive); in the experiment with SR it was 2.02 µM (inactive); in the experiment on IGROV-1, 18.8 µM (inactive); in the experiment with TK-10 it was 17.6 µM (inactive); in the experiment with OVCAR-4 it was 9.29 µM (inactive); with 786-0, 17.5 µM (inactive). Also, the GI50 is 4.7 µM (inactive) in the experiment with LOX IMVI; 16.9 µM (inactive) in the experiment with A498; 5.01 µM (inactive) in the experiment on COLO 205; 18.4 µM (inactive) in the experiment with HT-29; 10.8 µM (inactive) in the experiment with HCT-116; 17.2 µM (inactive) with HCC 2998. In addition, the GI50 in the experiment with BT-549 is 17.7 µM (inactive); in the experiment on CCRF-CEM, 0.802 µM (active); with EKVX, 22.4 µM (inactive); in the experiment on MDA-N it was 13.3 µM (inactive); with U-251, 16.4 µM (inactive); in the experiment on SK-MEL-5 it was 19.7 µM (inactive). In addition, the GI50 in the experiment on MDA-MB-231 was 20.5 µM (inactive).

`O=C1CN(c2ccccc2)C(=O)CN1CCN1CC(=O)N(c2ccccc2)CC1=O`: the GI50 with CAKI-1, with SR, with IGROV-1, in the experiment on TK-10, with OVCAR-4 and with 786-0 was > 100 µM (inactive) throughout. Besides, the GI50 in the experiment on A498, in the experiment on COLO 205, with HT-29, in the experiment on HCT-116, in the experiment with HCC 2998 and with BT-549 was > 100 µM (inactive) in each case. For the same compound, the GI50 in the experiment with EKVX, in the experiment with MDA-N, in the experiment with U-251 and in the experiment on SK-MEL-5 was > 100 µM (inactive) throughout.

For `Cc1cc(Cl)ccc1/N=N/C(=O)NNc1ccc(Cl)cc1C`, the GI50 is 22.2 µM (inactive) in the experiment with SR; 6.62 µM (inactive) in the experiment with IGROV-1; 18.2 µM (inactive) in the experiment on TK-10; 17.7 µM (inactive) in the experiment with OVCAR-4; 16.3 µM (inactive) in the experiment with 786-0; 16.9 µM (inactive) with LOX IMVI. Further, the GI50 with A498 was 9.06 µM (inactive); with HT-29, 21.3 µM (inactive); in the experiment on HCT-116 it was 13.4 µM (inactive); in the experiment on HCC 2998, 11.5 µM (inactive); with BT-549, 15.6 µM (inactive); with CCRF-CEM, 21.1 µM (inactive). In addition, the GI50 with MDA-N was 16.3 µM (inactive); in the experiment on U-251, 16.4 µM (inactive); in the experiment on SK-MEL-5 it was 13.9 µM (inactive); in the experiment with MDA-MB-231 it was 11.7 µM (inactive).

Regarding `COc1cc(CCCOC(=O)/C=C/c2ccc(O)c(O)c2)cc(O)c1O`, the GI50 with CAKI-1 is 58.3 µM (inactive); in the experiment on SR, 43.6 µM (inactive); in the experiment with IGROV-1, 80.2 µM (inactive); in the experiment with TK-10, > 100 µM (inactive); in the experiment with OVCAR-4, 40 µM (inactive); in the experiment on 786-0, 49 µM (inactive). In addition, the GI50 with LOX IMVI is 17.6 µM (inactive); in the experiment on A498, > 100 µM (inactive); with COLO 205, 94.6 µM (inactive); in the experiment with HT-29, 31.6 µM (inactive); in the experiment on HCT-116, 17.7 µM (inactive); in the experiment with HCC 2998, > 100 µM (inactive). Moreover, the GI50 in the experiment on BT-549 was 30.7 µM (inactive); with CCRF-CEM, 30.8 µM (inactive); in the experiment with EKVX, > 100 µM (inactive); in the experiment on MDA-N, 22.8 µM (inactive); in the experiment with U-251, 36.8 µM (inactive); in the experiment with SK-MEL-5 it was 31.2 µM (inactive). For the same compound, in the experiment with MDA-MB-231, the GI50 is 28.8 µM (inactive).

Take `O=C1N[C@H](C(=O)O)[C@@H](c2ccc(OCc3ccccc3)cc2)O1`: the GI50 was 34.3 µM (inactive) in the experiment on CAKI-1; 22.5 µM (inactive) in the experiment with NCI/ADR-RES; 20.9 µM (inactive) with IGROV-1; 27.4 µM (inactive) in the experiment with TK-10; 29.7 µM (inactive) in the experiment with OVCAR-4; 16.6 µM (inactive) in the experiment with 786-0. The GI50 was > 100 µM (inactive) in the experiment on COLO 205; > 100 µM (inactive) in the experiment with HT-29; 31.7 µM (inactive) with HCT-116; > 100 µM (inactive) with HCC 2998; 32.1 µM (inactive) in the experiment with BT-549; > 100 µM (inactive) in the experiment on CCRF-CEM. Moreover, the GI50 in the experiment on EKVX was 22.4 µM (inactive); in the experiment on MDA-N, > 100 µM (inactive); in the experiment on U-251 it was 27.9 µM (inactive); with SK-MEL-5, > 100 µM (inactive); with MDA-MB-231, 23.2 µM (inactive).

On to `COc1cccc(C2c3cc4c(cc3OC(N3CCCCC3)C2C)OCO4)c1OC` (stereo not given), for which the GI50 was 2.58 µM (inactive) in the experiment with CAKI-1; 1.24 µM (inactive) in the experiment with SR; 5.16 µM (inactive) in the experiment on IGROV-1; 16.5 µM (inactive) with TK-10; 72.1 µM (inactive) in the experiment with 786-0; 4.85 µM (inactive) in the experiment with LOX IMVI. Further, the GI50 in the experiment on A498 was 9.42 µM (inactive); with COLO 205, 7.64 µM (inactive); with HT-29, 4.58 µM (inactive); with HCT-116 it was 2.72 µM (inactive); with HCC 2998, 15.3 µM (inactive); with BT-549, 9.06 µM (inactive). Moreover, the GI50 in the experiment on CCRF-CEM was 3.46 µM (inactive); with EKVX, 13.7 µM (inactive); with MDA-N it was 11.2 µM (inactive); in the experiment with U-251, 4.58 µM (inactive); in the experiment with SK-MEL-5, 6.47 µM (inactive); with MDA-MB-231, 14.3 µM (inactive).

For the compound `C=C1C(=O)C23CC1CCC2C12CO[C@H](O)[C@H]1C(C)(C)[C@H](OC(C)=O)C[C@H]2OC3=O` (stereo not given in full), the GI50 with CAKI-1 was 15.2 µM (inactive); with NCI/ADR-RES it was 28.1 µM (inactive); with IGROV-1, 31.9 µM (inactive); in the experiment on TK-10 it was 14.3 µM (inactive); in the experiment on OVCAR-4 it was > 100 µM (inactive); in the experiment with 786-0, 16 µM (inactive). For the same compound, the GI50 in the experiment with LOX IMVI was 18.1 µM (inactive); in the experiment with COLO 205, 15.1 µM (inactive); in the experiment on HT-29, 13.4 µM (inactive); in the experiment with HCT-116, 14.8 µM (inactive); with HCC 2998, 22.6 µM (inactive); with BT-549, 9.48 µM (inactive). Moreover, the GI50 was 6.14 µM (inactive) with CCRF-CEM; 15.1 µM (inactive) with EKVX; 16.1 µM (inactive) in the experiment with MDA-N; 64.1 µM (inactive) in the experiment with U-251; 30.8 µM (inactive) in the experiment with SK-MEL-5; 19.8 µM (inactive) in the experiment with MDA-MB-231.

With `COC(=O)Nc1nc2cc(C(=O)c3cccs3)ccc2[nH]1` [NOCODAZOLE], the GI50 in the experiment on CAKI-1 was 1.11 µM (active); in the experiment on IGROV-1, 0.0242 µM (active); in the experiment with TK-10, 2.95 µM (inactive); in the experiment on OVCAR-4, 22.3 µM (inactive); in the experiment on 786-0, 0.0789 µM (active); with LOX IMVI it was 0.0214 µM (active). In addition, the GI50 in the experiment on A498 is 0.0196 µM (active); in the experiment on COLO 205, 0.0194 µM (active); in the experiment with HT-29 it was 0.0142 µM (active); with HCT-116 it was 0.0152 µM (active); with BT-549, 0.0527 µM (active); in the experiment with CCRF-CEM, 0.0145 µM (active). Also, the GI50 in the experiment on EKVX is 0.0397 µM (active); with MDA-N, 0.0124 µM (active); in the experiment with U-251, 0.0403 µM (active); in the experiment with MDA-MB-231, 0.171 µM (active).
